Measured values: article PMC4076210, “Discovery of Novel AKT Inhibitors with Enhanced Anti-Tumor Effects in Combination with the MEK Inhibitor” (PLoS ONE, 2014)
Read-outs that look alike come from different tables or passages of the source.

What was measured:
Assay type in all cases: biochemical
PKG1α = PKG1α (Homo sapiens, UniProt Q13976); assay: Kinase IC50 assay
SRPK1(h) = molecular target: T1, SRPK1(h) (Homo sapiens, UniProt Q96SB4); assay: Kinase panel
T1 construct: purchased Millipore KinaseProfiler

IGF-1R(h) = molecular target: T2, IGF-1R(h) (Homo sapiens, UniProt P08069); assay: Kinase panel
T2 construct: purchased Millipore KinaseProfiler

PASK(h) = molecular target: T3, PASK(h) (Homo sapiens, UniProt Q96RG2); assay: Kinase panel
T3 construct: purchased Millipore KinaseProfiler

LOK(h) = molecular target: T4, LOK(h) (Homo sapiens, UniProt O94804); assay: Kinase panel
T4 construct: purchased Millipore KinaseProfiler

PKCα(h) = molecular target: T5, PKCα(h) (Homo sapiens, UniProt P17252); assay: Kinase panel
T5 construct: purchased Millipore KinaseProfiler

Arg(h) = molecular target: T6, Arg(h) (Homo sapiens, UniProt P42684); assay: Kinase panel
T6 construct: purchased Millipore KinaseProfiler

Rsk2(h) = molecular target: T7, Rsk2(h) (Homo sapiens, UniProt P51812); assay: Kinase panel
T7 construct: purchased Millipore KinaseProfiler

PAK2(h) = molecular target: T8, PAK2(h) (Homo sapiens, UniProt Q13177); assay: Kinase panel
T8 construct: purchased Millipore KinaseProfiler
T8 sequence (Q13177 whole entry): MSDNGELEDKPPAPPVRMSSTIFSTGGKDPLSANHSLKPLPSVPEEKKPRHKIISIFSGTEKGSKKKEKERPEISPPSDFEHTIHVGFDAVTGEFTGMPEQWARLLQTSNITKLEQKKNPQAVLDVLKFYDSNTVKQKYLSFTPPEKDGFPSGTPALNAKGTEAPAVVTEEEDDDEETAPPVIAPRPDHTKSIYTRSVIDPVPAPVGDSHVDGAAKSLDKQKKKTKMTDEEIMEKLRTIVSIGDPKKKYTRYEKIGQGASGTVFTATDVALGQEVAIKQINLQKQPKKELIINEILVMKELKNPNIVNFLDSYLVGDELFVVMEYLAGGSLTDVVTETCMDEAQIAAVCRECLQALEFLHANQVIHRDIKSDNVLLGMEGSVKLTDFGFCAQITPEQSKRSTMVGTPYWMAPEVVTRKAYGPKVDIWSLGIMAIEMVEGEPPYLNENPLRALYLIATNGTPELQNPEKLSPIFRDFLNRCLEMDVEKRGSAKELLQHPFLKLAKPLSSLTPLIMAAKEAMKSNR

SAPK2a(h) = molecular target: T9, SAPK2a(h) (Homo sapiens, UniProt Q16539); assay: Kinase panel
T9 construct: purchased Millipore KinaseProfiler
T9 sequence (Q16539 whole entry): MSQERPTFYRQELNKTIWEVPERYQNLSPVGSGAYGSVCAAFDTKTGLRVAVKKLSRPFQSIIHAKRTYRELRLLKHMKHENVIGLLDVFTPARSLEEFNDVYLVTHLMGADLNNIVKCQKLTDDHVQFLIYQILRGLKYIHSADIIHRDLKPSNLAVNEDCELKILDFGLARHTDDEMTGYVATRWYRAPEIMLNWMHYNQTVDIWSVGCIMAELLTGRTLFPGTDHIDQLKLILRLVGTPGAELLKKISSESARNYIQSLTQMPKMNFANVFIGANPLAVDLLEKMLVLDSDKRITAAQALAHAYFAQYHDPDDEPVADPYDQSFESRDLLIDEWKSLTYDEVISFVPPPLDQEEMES

NEK7(h) = molecular target: T10, NEK7(h) (Homo sapiens, UniProt Q8TDX7); assay: Kinase panel
T10 construct: purchased Millipore KinaseProfiler
T10 sequence (Q8TDX7 whole entry): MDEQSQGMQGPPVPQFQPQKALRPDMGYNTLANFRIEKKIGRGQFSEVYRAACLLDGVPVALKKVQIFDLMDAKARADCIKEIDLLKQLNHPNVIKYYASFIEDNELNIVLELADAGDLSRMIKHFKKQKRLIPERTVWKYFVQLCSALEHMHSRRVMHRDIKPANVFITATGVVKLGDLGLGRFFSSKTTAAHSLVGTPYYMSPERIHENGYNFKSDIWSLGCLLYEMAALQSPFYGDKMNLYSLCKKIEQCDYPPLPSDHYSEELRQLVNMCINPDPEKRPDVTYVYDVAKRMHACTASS

EGFR(T790M,L858R)(h) = molecular target: T11, EGFR(T790M,L858R)(h) (Homo sapiens, UniProt P00533, L858R/T790M); assay: Kinase panel
T11 construct: purchased Millipore KinaseProfiler

PKCι = PKCι (Homo sapiens, UniProt P41743); assay: Kinase IC50 assay
PDGFRβ(h) = molecular target: T12, PDGFRβ(h) (Homo sapiens, UniProt P09619); assay: Kinase panel
T12 construct: purchased Millipore KinaseProfiler
T12 sequence (P09619 33-1106): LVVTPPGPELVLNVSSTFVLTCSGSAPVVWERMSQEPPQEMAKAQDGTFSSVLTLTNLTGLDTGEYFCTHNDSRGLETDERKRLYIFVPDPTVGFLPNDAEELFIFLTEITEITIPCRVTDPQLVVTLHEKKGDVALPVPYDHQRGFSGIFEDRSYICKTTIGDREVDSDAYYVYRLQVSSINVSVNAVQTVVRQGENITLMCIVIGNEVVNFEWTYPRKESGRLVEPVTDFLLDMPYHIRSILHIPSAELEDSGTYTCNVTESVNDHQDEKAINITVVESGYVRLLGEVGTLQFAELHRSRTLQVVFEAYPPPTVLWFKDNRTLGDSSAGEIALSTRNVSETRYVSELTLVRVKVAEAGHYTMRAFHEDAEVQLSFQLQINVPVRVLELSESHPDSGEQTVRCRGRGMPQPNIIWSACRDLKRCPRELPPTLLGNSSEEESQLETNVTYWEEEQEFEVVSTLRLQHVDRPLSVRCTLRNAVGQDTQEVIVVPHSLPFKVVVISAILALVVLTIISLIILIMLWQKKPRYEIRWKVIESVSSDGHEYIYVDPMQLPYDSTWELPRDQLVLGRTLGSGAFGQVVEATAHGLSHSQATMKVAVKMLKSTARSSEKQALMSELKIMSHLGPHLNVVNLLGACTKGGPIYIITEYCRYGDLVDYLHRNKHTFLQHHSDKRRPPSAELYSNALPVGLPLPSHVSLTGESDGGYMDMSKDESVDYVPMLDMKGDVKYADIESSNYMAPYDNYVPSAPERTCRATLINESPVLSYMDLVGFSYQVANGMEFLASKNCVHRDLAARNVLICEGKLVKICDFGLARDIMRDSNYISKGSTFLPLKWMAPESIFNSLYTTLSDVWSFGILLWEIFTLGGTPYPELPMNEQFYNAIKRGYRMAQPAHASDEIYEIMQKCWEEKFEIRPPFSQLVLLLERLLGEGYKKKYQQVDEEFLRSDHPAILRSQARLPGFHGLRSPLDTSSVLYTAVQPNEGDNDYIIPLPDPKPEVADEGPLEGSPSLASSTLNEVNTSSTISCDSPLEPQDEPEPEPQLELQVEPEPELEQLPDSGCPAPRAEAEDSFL

CDK7/cyclinH/MAT1(h) = molecular target: T13, CDK7/cyclinH/MAT1(h) (Homo sapiens, UniProt P50613); assay: Kinase panel
T13 construct: purchased Millipore KinaseProfiler
T13 sequence (P50613 whole entry): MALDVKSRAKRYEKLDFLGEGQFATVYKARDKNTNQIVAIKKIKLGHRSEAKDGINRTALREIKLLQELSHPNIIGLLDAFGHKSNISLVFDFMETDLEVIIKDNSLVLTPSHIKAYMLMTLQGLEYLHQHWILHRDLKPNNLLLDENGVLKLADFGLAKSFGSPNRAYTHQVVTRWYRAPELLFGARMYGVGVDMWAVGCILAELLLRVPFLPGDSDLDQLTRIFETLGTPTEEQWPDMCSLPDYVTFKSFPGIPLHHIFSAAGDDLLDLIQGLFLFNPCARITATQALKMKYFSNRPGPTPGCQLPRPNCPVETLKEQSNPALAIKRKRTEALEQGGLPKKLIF
T13 sequence (P51946 whole entry partner): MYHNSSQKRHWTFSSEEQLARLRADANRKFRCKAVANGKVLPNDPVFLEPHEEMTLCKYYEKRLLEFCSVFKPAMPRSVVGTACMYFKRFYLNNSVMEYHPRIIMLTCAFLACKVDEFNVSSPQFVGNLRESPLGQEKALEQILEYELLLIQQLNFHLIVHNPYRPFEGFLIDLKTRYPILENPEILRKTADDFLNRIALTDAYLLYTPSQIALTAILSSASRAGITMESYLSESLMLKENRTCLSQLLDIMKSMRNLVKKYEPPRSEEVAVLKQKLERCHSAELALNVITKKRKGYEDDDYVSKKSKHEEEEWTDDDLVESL
T13 sequence (P51948 whole entry partner): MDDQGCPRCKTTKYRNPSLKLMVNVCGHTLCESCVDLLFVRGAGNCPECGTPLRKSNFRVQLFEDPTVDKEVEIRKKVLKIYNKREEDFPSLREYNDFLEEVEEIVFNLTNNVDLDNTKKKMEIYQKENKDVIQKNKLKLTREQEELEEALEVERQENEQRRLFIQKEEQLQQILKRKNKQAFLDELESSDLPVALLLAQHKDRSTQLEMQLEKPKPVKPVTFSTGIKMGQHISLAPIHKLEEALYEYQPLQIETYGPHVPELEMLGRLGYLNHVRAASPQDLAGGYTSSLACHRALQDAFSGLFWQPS

GRK7(h) = molecular target: T14, GRK7(h) (Homo sapiens, UniProt Q8WTQ7); assay: Kinase panel
T14 construct: purchased Millipore KinaseProfiler
T14 sequence (Q8WTQ7 1-553): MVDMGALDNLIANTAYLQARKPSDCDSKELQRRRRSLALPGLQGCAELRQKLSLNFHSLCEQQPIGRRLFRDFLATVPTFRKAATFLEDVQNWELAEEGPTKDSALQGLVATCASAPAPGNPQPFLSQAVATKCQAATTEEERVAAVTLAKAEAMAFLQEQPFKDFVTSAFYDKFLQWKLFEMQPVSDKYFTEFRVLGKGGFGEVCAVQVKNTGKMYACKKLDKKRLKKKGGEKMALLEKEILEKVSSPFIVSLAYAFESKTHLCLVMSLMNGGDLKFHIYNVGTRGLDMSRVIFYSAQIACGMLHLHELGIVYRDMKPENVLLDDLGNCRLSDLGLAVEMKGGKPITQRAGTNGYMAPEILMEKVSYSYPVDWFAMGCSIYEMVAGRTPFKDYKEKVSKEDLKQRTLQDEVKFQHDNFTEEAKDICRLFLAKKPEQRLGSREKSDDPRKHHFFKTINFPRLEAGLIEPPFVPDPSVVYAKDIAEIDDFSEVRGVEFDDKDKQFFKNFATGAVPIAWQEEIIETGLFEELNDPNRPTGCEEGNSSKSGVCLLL

Yes(h) = molecular target: T15, Yes(h) (Homo sapiens, UniProt P07947); assay: Kinase panel
T15 construct: purchased Millipore KinaseProfiler
T15 sequence (P07947 whole entry): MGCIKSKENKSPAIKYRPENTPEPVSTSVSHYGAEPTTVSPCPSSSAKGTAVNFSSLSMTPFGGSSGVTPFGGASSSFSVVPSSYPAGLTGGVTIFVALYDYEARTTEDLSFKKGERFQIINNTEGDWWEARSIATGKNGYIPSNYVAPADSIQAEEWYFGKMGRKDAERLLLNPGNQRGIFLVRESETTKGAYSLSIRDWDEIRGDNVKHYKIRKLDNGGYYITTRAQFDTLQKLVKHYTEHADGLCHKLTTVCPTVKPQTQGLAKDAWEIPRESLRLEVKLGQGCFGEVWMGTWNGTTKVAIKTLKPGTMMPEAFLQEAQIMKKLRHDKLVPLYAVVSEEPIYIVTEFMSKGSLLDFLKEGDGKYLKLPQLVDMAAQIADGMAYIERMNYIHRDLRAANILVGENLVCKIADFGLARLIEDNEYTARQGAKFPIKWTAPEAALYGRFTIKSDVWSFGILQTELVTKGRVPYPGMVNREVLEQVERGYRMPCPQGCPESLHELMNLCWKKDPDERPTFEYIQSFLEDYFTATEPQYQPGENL

MuSK(h) = molecular target: T16, MuSK(h) (Homo sapiens, UniProt O15146); assay: Kinase panel
T16 construct: purchased Millipore KinaseProfiler
T16 sequence (O15146 24-869): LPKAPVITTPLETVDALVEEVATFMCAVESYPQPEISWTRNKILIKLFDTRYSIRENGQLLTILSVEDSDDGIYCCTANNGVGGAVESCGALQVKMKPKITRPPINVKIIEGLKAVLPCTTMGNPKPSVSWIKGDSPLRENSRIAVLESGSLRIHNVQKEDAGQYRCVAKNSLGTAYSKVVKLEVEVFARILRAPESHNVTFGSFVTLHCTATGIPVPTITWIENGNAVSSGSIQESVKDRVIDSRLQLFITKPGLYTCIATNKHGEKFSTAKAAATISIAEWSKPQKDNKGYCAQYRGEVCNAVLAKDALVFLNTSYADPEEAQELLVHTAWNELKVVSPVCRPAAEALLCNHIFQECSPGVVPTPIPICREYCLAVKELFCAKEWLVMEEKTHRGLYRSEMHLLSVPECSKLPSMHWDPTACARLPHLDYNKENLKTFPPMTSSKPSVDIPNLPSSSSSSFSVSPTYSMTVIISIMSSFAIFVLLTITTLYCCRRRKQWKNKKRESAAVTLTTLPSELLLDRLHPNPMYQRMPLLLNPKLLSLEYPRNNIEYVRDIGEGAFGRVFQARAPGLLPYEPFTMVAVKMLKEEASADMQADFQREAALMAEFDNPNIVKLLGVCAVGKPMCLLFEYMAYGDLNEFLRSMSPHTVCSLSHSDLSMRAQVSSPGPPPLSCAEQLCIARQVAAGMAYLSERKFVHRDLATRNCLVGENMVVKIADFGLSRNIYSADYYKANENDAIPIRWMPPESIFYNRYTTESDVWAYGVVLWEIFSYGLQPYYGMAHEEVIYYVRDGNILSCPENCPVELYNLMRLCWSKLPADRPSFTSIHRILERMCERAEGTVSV

PKCδ(h) = molecular target: T17, PKCδ(h) (Homo sapiens, UniProt Q05655); assay: Kinase panel
T17 construct: purchased Millipore KinaseProfiler

EGFR(h) = molecular target: T18, EGFR(h) (Homo sapiens, UniProt P00533); assay: Kinase panel
T18 construct: purchased Millipore KinaseProfiler

## Cn1ncc(Cl)c1-c1cc(C(=O)N[C@H](CN)Cc2cccc(F)c2)sc1Cl [GSK2110183]
PKG1α
  IC50: 0.9 nM
SRPK1(h)
  inhibition at 0.5 µM: -1%
  inhibition at 10 µM: 18%
IGF-1R(h)
  inhibition at 0.5 µM: 7%
  inhibition at 10 µM: 25%
PASK(h)
  inhibition at 0.5 µM: 4%
  inhibition at 10 µM: 45%
LOK(h)
  inhibition at 0.5 µM: -9%
  inhibition at 10 µM: 5%
PKCα(h)
  inhibition at 0.5 µM: 2%
  inhibition at 10 µM: 40%
Arg(h)
  inhibition at 0.5 µM: -3%
  inhibition at 10 µM: -1%
Rsk2(h)
  inhibition at 0.5 µM: 63%
  inhibition at 10 µM: 97%
PAK2(h)
  inhibition at 0.5 µM: -2%
  inhibition at 10 µM: 23%
SAPK2a(h)
  inhibition at 0.5 µM: -13%
  inhibition at 10 µM: -8%
NEK7(h)
  inhibition at 0.5 µM: -8%
  inhibition at 10 µM: -12%
EGFR(T790M,L858R)(h)
  inhibition at 0.5 µM: -32%
  inhibition at 10 µM: -3%
PKCι
  IC50: > 1000 nM
PDGFRβ(h)
  inhibition at 0.5 µM: 2%
  inhibition at 10 µM: 5%
CDK7/cyclinH/MAT1(h)
  inhibition at 0.5 µM: 62%
  inhibition at 10 µM: 96%
GRK7(h)
  inhibition at 0.5 µM: 64%
  inhibition at 10 µM: 96%
Yes(h)
  inhibition at 0.5 µM: 2%
  inhibition at 10 µM: 38%
MuSK(h)
  inhibition at 0.5 µM: -25%
  inhibition at 10 µM: -20%
PKCδ(h)
  inhibition at 0.5 µM: 48%
  inhibition at 10 µM: 92%
EGFR(h)
  inhibition at 0.5 µM: -4%
  inhibition at 10 µM: 2%

## Cn1ncc(Cl)c1-c1cc(C(=O)N[C@H](CN)Cc2ccc(F)c(F)c2)oc1Cl [GSK2141795]
PKG1α
  IC50: < 1 nM
SRPK1(h); 0.5 µM, read-out: % Inhibition
  inhibition at 0.5 µM: 5%
SRPK1(h); 10 µM, read-out: % Inhibition
  inhibition at 10 µM: 17%
IGF-1R(h); 0.5 µM, read-out: % Inhibition
  inhibition at 0.5 µM: 6%
IGF-1R(h); 10 µM, read-out: % Inhibition
  inhibition at 10 µM: 31%
PASK(h); 0.5 µM, read-out: % Inhibition
  inhibition at 0.5 µM: 11%
PASK(h); 10 µM, read-out: % Inhibition
  inhibition at 10 µM: 49%
LOK(h); 0.5 µM, read-out: % Inhibition
  inhibition at 0.5 µM: -14%
LOK(h); 10 µM, read-out: % Inhibition
  inhibition at 10 µM: 11%
PKCα(h); 0.5 µM, read-out: % Inhibition
  inhibition at 0.5 µM: 10%
PKCα(h); 10 µM, read-out: % Inhibition
  inhibition at 10 µM: 62%
Arg(h); 0.5 µM, read-out: % Inhibition
  inhibition at 0.5 µM: -13%
Arg(h); 10 µM, read-out: % Inhibition
  inhibition at 10 µM: -17%
Rsk2(h); 0.5 µM, read-out: % Inhibition
  inhibition at 0.5 µM: 73%
Rsk2(h); 10 µM, read-out: % Inhibition
  inhibition at 10 µM: 100%
PAK2(h); 0.5 µM, read-out: % Inhibition
  inhibition at 0.5 µM: 22%
PAK2(h); 10 µM, read-out: % Inhibition
  inhibition at 10 µM: 25%
SAPK2a(h); 0.5 µM, read-out: % Inhibition
  inhibition at 0.5 µM: -7%
SAPK2a(h); 10 µM, read-out: % Inhibition
  inhibition at 10 µM: -3%
NEK7(h); 0.5 µM, read-out: % Inhibition
  inhibition at 0.5 µM: -9%
NEK7(h); 10 µM, read-out: % Inhibition
  inhibition at 10 µM: -32%
EGFR(T790M,L858R)(h); 0.5 µM, read-out: % Inhibition
  inhibition at 0.5 µM: -7%
EGFR(T790M,L858R)(h); 10 µM, read-out: % Inhibition
  inhibition at 10 µM: 18%
PKCι
  IC50: > 1000 nM
PDGFRβ(h); 0.5 µM, read-out: % Inhibition
  inhibition at 0.5 µM: -7%
PDGFRβ(h); 10 µM, read-out: % Inhibition
  inhibition at 10 µM: -4%
CDK7/cyclinH/MAT1(h); 0.5 µM, read-out: % Inhibition
  inhibition at 0.5 µM: 64%
CDK7/cyclinH/MAT1(h); 10 µM, read-out: % Inhibition
  inhibition at 10 µM: 101%
GRK7(h); 0.5 µM, read-out: % Inhibition
  inhibition at 0.5 µM: 42%
GRK7(h); 10 µM, read-out: % Inhibition
  inhibition at 10 µM: 76%
Yes(h); 0.5 µM, read-out: % Inhibition
  inhibition at 0.5 µM: -4%
Yes(h); 10 µM, read-out: % Inhibition
  inhibition at 10 µM: 83%
MuSK(h); 0.5 µM, read-out: % Inhibition
  inhibition at 0.5 µM: -11%
MuSK(h); 10 µM, read-out: % Inhibition
  inhibition at 10 µM: -2%
PKCδ(h); 0.5 µM, read-out: % Inhibition
  inhibition at 0.5 µM: 67%
PKCδ(h); 10 µM, read-out: % Inhibition
  inhibition at 10 µM: 85%
EGFR(h); 0.5 µM, read-out: % Inhibition
  inhibition at 0.5 µM: -42%
EGFR(h); 10 µM, read-out: % Inhibition
  inhibition at 10 µM: -40%
